“And” between values parts separate entries of the source, which are not always exact repeats. Identical values can stand only once. Like-named read-outs stand apart in the source and are kept apart here.
Legend:
WBCs [1] = assay: Recovery rate of cells after immobilization on streptavidin (SA) plate; format: cell-based; conditions: for Remarks (staining): staining of the cells by the molecule
Method: X=hydrophobic moiety, […]=fluorescein In the following experiment, the recovery rate of cells was determined.

WBC [2] = assay: WBC recovery rate after centrifugation (stabilization of cells); format: cell-based, human; conditions: for WBC recovery rate after centrifugation: dependence on molecule concentration: Centrifugation 10 min; for performance in WBC recovery rate after centrifugation (ranking): Centrifugation 20 min, 10 min, 1 h
Method: (§1) Centrifugation characteristics: 10 min, 300×g.
as §1
The respective left, middle and right columns per assay represent different Experimenters 1, 2 and 3. […] Centrifugation characteristics: 10 min, 300×g. Molecule: Cholesteryl-TEG-Cholesteryl-TEG-(SpacerC18)7-Fluos-Biotin-TEG.
(§2) Following molecules were tested: 1234: 5′-(Cholesteryl-TEG)2-Spacer C18-dT-Biotin-TEG-3′; 1248: 3′-(Cholesteryl-TEG)2-PEG2000-Fluos-Biotin-TEG-5′ INVERS; 1254: 3′-(Cholesteryl-TEG)2-SpacerC18-Fluos-Biotin-TEG-5′ INVERS; 1255: 3′-(Myristic acid)2-PEG2000-dT-Biotin-TEG-5′ INVERS. […] Centrifugation characteristics: 20 min, 300×g. Respective left column: 10 min incubation with molecule. Respective middle column: 1 h min incubation with molecule. Respective right column: 2 h incubation with molecule.
Following molecules were tested: 1255: 3′-(Myristic acid)2-PEG2000-dT-Biotin-TEG-5′ INVERS; 1234: 5′-(Cholesteryl-TEG)2-Spacer C18-dT-Biotin-TEG-3′; 1248: 3′-(Cholesteryl-TEG)2-PEG2000-Fluos-Biotin-TEG-5′ INVERS; 1254: 3′-(Cholesteryl-TEG)2-SpacerC18-Fluos-Biotin-TEG-5′ INVERS. […] Centrifugation characteristics: 20 min, 500×g. Respective left column: 10 min incubation with molecule. Respective middle column: 1 h min incubation with molecule. Respective right column: 3 h incubation with molecule.
as §2, with “tested: 1255: 3′-(Myristic acid)2-PEG2000-dT-Biotin-TEG-5′ INVERS;” for “tested:”, “3′-(Cholesteryl-TEG)2-SpacerC18-Fluos-Biotin-TEG-5′” for “3′-(Cholesteryl-TEG)2-SpacerC18-Fluos-Biotin-TEG-5′ INVERS; 1255: 3′-(Myristic acid)2-PEG2000-dT-Biotin-TEG-5′”, “1000×g.” for “300×g.”
Stabilization is typically determined on a population of cells, e.g. 2, 10, 100 or more cells, and the respective mean viability of the cell populations are compared. […] Viability may be determined by determining cell morphology, cell viability and/or cell recovery. Methods for determining cell morphology, cell viability and cell recovery are known in the art. […] For determining cell morphology, visual inspection by microscopy may be performed. For determining cell viability, a cell viability test using WST-1 proliferation kit (RAS) may be performed.

Epithelial cells = assay: Labelling (staining) of cells with labelled molecules; format: cell-based
Description: (§3) As shown in the examples, a compound for use according to the invention, wherein the compound comprises a label moiety, is contacted with a cell. As labelling is preferably done with viable or potentially viable cells, the cells are typically present in an aqueous solution, which is preferably buffered and/or contains nutrients, e.g. the cells are suspended in PBS. The labeled compound for use according to the invention may be added to the cells, e.g. in form of a solution, e.g. as aqueous solution by methods known in the art, as pipetting.

MDA-MB468 = assay: as above; format: cell-based
Description: as §3

U937 = assay: as above; format: cell-based
Description: as §3

WBCs [3] = assay: as above; format: cell-based
Description: as §3

white blood cells (WBCs) = conditions: 300,000 WBCs/well
Method: In particular, the performance of a single cholesterol-molecule and different dual-linker molecules (i.e. containing two hydrophobic moieties) was tested. In detail, immobilization of white blood cells (WBCs) on a Streptavidin-coated surface using different linker molecules was tested on a 12-well plate: 300,000 WBCs/well. This was followed by the measurement of the cell recovery rate after immobilization and washing of the cells using the Cellavista instrument (10×Nuclei Operator s9s5).

WBC [4] = tested on: WBC
Method: 4× determination. Row A: 200 μl PBS introduced, 1 nmol of compound added thereto respectively, mixed, incubated about 30 min, washed 2×PBS, 800 μl PBS introduced, 300.000 WBC (untreated) added. Row B: 800 μl PBS introduced, 300.000 WBC (untreated) added. Row C: 10×10^6 WBC in 1 ml with 10 nmol compound of invention 10 min incubated, 800 μl PBS/Well introduced, 300.000 treated WBC respectively. The first MTP plate washed after 30 min 2× with PBS, overlayed with Höchst and incubated for 15 min.>Cellavista (Operator s9s5) measured. The second plate was measured after 90 min. The third plate was measured after 150 min.
The experiments were performed for different incubation times, as shown below:
As starting material 5′-(Cholesteryl-TEG)2-PEG2000-Fluos-Biotin_TEG-3′ INVERS (14530 pmol/μl) (Internal Reference No.: 29.891250), and a streptavidin treated MTP (Microcoat), 12 Well plate were used.
Erythrocyte lysis was performed as follows:
EDTA-whole blood 59.423 6.400 WBC/μl (Ambulanz Roche)
lysis buffer: 100 mM NH4Cl+5 mM Hepes+0.5 mM KHCO3+0.1 mM EDTA-K
Ca 1×8 ml whole blood filled in 50 ml Falcon tube with lysis buffer, incubate at room temperature for 10 min
15 min at 250 g centrifugated, pellet resuspended by pipetting in and out in lysis buffer; filled to 50 ml with lysis buffer
15 min 250 g centrifugated, pellet resuspended with PBS, filled to 50 ml with PBS, 15 min 250 g centrifugated, filled to 50 ml with PBS
The design of the experiment on the plate is explained below (see FIG. 2):
Row A: 200 μl PBS introduced, 1 nmol of compound added thereto respectively, mixed, incubated about 30 min, washed 2× PBS, • 800 μl PBS introduced, 300.000 WBC (untreated) added.
Row B: 800 μl PBS introduced, 300.000 WBC (untreated) added.

[5] = 300×g, 2 h incubation with molecule
[6] = 500×g, 3 h incubation with molecule
[7] = Sample 1, compound concentration: 1 nmol/10e6 WBCs
[8] = Sample 1, first table, concentration not given
[9] = Sample 2, Compound Concentration: 100 pmol/10e6 WBCs
[10] = Sample 2, Compound Concentration: 1 nmol/10e6 WBCs

5′-Myristic acid-Myristic acid-PEG2000-Fluos-BiotinTEG-3′ [BMO 29.891194]
Remarks (staining) (WBCs [1]): weak and stronger

5′-CholesterylTEG-CholesterylTEG-(SpacerC18)7-Fluos-BiotinTEG-3′ [BMO 29.891222]
WBC recovery rate after centrifugation: dependence on molecule concentration (WBC [2]; 300×g): the higher the molecule concentration, the higher the cell recovery rate after centrifugation | WBC recovery rate after centrifugation: dependence on molecule concentration (WBC [2]; 300×g, listed as A): The higher the molecule concentration, the higher the cell recovery rate after centrifugation | cell stabilization: dependence on the experimenter (WBC [2]; Experimenters 1, 2 and 3, centrifugation 10 min, 300×g): independent on the experimenter

5′-(Cholesteryl-TEG)2-Spacer C18-dT-Biotin-TEG-3′ [compound 1234]
performance in WBC recovery rate after centrifugation (ranking) (WBC [2]; [5]): best performance | performance in WBC recovery rate after centrifugation (ranking) (WBC [2]; [6]): best performance

Biotin-PEG-Lysin-(C18)2 [HH1755]
WBC recovery rate after centrifugation: dependence on molecule concentration (WBC [2]; 300×g): The higher the concentration of the molecule, the higher the cell recovery rate after centrifugation

5′-alphaTocopherolTEG-PEG2000-Fluos-3′ [BMO 29.891131]
staining of cells by labelled molecule (Epithelial cells): ✓ | staining of cells by labelled molecule (MDA-MB468): ✓ | staining of cells by labelled molecule (U937): ✓ | staining of cells by labelled molecule (WBCs [3]): ✓ not all

CCCCCCCCCCCCCCCCCCCCCCN1/C(=C/C=C/c2oc3ccccc3[n+]2CCC)Oc2ccccc21.[I-] [PKH2]
staining of cells by labelled molecule (Epithelial cells): ✓ not all | staining of cells by labelled molecule (WBCs [3]): ✓

5′-Myristic acid-SpacerC9-Myristic acid-PEG2000-Fluos-BiotinTEG-3′ [BMO 29.891197]
Remarks (staining) (WBCs [1]): weak

5′-Myristic acid-Myristic acid-SpacerC18-Fluos-BiotinTEG-3′ [BMO 29.891213]
Remarks (staining) (WBCs [1]): strong

5′-(Cholesteryl-TEG)2-Spacer C18-Fluos-Biotin_TEG-3′ INVERS [29.891254]
cell count per well (white blood cells (WBCs); [7]): 244649 and 234262 and 260760 | cell count per well (white blood cells (WBCs); [8]): 157660 and 190148 and 170850 | Mean (cell count) (white blood cells (WBCs); [9]): 197067.00 | cell count per well (white blood cells (WBCs); [9]): 205917 and 185100 and 200184 | Mean (cell count) (white blood cells (WBCs); [10]): 245376.00 | cell count per well (white blood cells (WBCs); [10]): 247428 and 244396 and 244304 | performance in WBC recovery rate after centrifugation (ranking) (WBC [2]; [5]): followed by compound 1255 and 1254 | performance in WBC recovery rate after centrifugation (ranking) (WBC [2]; [6]): followed by molecule 1255 and 1254

Biotin-PEG-Lysin-(C18)2 [HH1749]
WBC recovery rate after centrifugation: dependence on molecule concentration (WBC [2]; 300×g): The higher the concentration of the molecule, the higher the cell recovery rate after centrifugation

Biotin-PEG-Lys-(C14)2 [15.260268]
Recovery Rate (WBCs [1]; 1.77 nmol/10e6 Cells): 85.72%

Sulfo-JA133-phenylboronic acid [BMO: 15.000078]
staining of cells by labelled molecule (Epithelial cells): ✓ | staining of cells by labelled molecule (WBCs [3]): ✓ not all

5′-CholesterylTEG-CholesterylTEG-PEG2000-Fluos-BiotinTEG-3′ [BMO 29.891180]
Remarks (staining) (WBCs [1]): strong

5′-(Cholesterol-TEG)1-Doubler-dT-Biotin-3′ [29.891272]
cell count per well (white blood cells (WBCs); [7]): 199973 and 220701 and 228481 | cell count per well (white blood cells (WBCs); [8]): 147132 and 179643 and 181620 | Mean (cell count) (white blood cells (WBCs); [9]): 186316.33 | cell count per well (white blood cells (WBCs); [9]): 161504 and 201424 and 196021 | Mean (cell count) (white blood cells (WBCs); [10]): 247418.33 | cell count per well (white blood cells (WBCs); [10]): 241232 and 254894 and 246129

Biotin-PEG-Lysin-(C18)2 [HH1750]
WBC recovery rate after centrifugation: dependence on molecule concentration (WBC [2]; 300×g): The higher the concentration of the molecule, the higher the cell recovery rate after centrifugation

5′-Myristic acid-Myristic acid-(SpacerC18)7-Fluos-BiotinTEG-3′ [BMO 29.891214]
Remarks (staining) (WBCs [1]): strong

5′-(Cholesteryl-TEG)2-Spacer C12-dT-Biotin_TEG-3′ INVERS [29.891253]
cell count per well (white blood cells (WBCs); [7]): 218861 and 221471 and 208802 | cell count per well (white blood cells (WBCs); [8]): 105061 and 128195 and 139678 | Mean (cell count) (white blood cells (WBCs); [9]): 187757.67 | cell count per well (white blood cells (WBCs); [9]): 178919 and 197130 and 187224 | Mean (cell count) (white blood cells (WBCs); [10]): 237052.33 | cell count per well (white blood cells (WBCs); [10]): 239105 and 240632 and 231420

5′-Cholesteryl-TEG-PEG2000-Fluos-3′ [BMO 29.891132]
staining of cells by labelled molecule (Epithelial cells): ✓ | staining of cells by labelled molecule (MDA-MB468): ✓ | staining of cells by labelled molecule (U937): ✓ | staining of cells by labelled molecule (WBCs [3]): ✓ not all

5′-(Cholesteryl-TEG)2-PEG2000-Fluos-Biotin_TEG-3′ INVERS [29.891250]
MW (mean WBC count; target: 300.000 WBC) (WBC [4]; 30 min, WBC treated): 231829.75 | WBC recovery rate [%] (Mean %) (WBC [4]; 30 min, WBC treated: molecule + cells): 77.28% | MW (mean WBC count; target: 300.000 WBC) (WBC [4]; 30 min, Well treated): 64909 | WBC recovery rate [%] (Mean %) (WBC [4]; 30 min, well treated: molecule bound to surface): 21.64% | MW (mean WBC count; target: 300.000 WBC) (WBC [4]; 90 min, WBC treated): 249346.25 | WBC recovery rate [%] (Mean %) (WBC [4]; 90 min, WBC treated: molecule + cells, listed as molecule useful in methods of invention): 83.12% and 83.1% | MW (mean WBC count; target: 300.000 WBC) (WBC [4]; 90 min, Well treated): 142865 | WBC recovery rate [%] (Mean %) (WBC [4]; 90 min, well treated: molecule bound to surface, listed as molecule useful in methods of invention): 47.62% and 47.6% | MW (mean WBC count; target: 300.000 WBC) (WBC [4]; 120 min, WBC treated): 258692.75 | WBC recovery rate [%] (Mean %) (WBC [4]; 120 min, WBC treated: molecule + cells): 86.23% | MW (mean WBC count; target: 300.000 WBC) (WBC [4]; 120 min, Well treated): 171062.75 | WBC recovery rate [%] (Mean %) (WBC [4]; 120 min, well treated: molecule bound to surface): 57.02%

3′-(Myristic acid)2-PEG2000-dT-Biotin-TEG-5′ INVERS [compound 1255]
performance in WBC recovery rate after centrifugation (ranking) (WBC [2]; [5]): followed by compound 1255 and 1254 | performance in WBC recovery rate after centrifugation (ranking) (WBC [2]; [6]): followed by molecule 1255 and 1254

Source: patent US11021472B2, “Use of compounds comprising two or more hydrophobic domains and a hydrophilic domain comprising PEG moieties for stabilization of a cell” (Roche Diagnostics Operations, Inc., priority 2013, dated 2021)
